Results published in patent publication US20240208992A1, “MACROCYCLES AS CFTR MODULATORS” (Idorsia Pharmaceuticals Ltd, priority 2021, published 2024).

Molecular target: human F508del-CFTR (Homo sapiens, UniProt P13569, DEL508-508)
Test: F508del-CFTR cell surface expression (corrector activity), DiscoveRx ß-galactosidase complementation chemiluminescence assay in recombinant U2OS cell line;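 note: U2OS cells co-expressing ProLink-tagged F508del-CFTR and a membrane-anchored enzyme acceptor, where more surface CFTR restores β-galactosidase activity measured by chemiluminescence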
Settings: U2OS cells, 16h compound incubation; for EC50: EC50, F508del-CFTR cell surface expression, geomean of several measurements; for Emax: U2OS, in relation to the Emax of the corrector lumacaftor (=100%), arithmetic mean

human F508del-CFTR, sequence (P13569 with tags, fused parts or gaps DEL508-508): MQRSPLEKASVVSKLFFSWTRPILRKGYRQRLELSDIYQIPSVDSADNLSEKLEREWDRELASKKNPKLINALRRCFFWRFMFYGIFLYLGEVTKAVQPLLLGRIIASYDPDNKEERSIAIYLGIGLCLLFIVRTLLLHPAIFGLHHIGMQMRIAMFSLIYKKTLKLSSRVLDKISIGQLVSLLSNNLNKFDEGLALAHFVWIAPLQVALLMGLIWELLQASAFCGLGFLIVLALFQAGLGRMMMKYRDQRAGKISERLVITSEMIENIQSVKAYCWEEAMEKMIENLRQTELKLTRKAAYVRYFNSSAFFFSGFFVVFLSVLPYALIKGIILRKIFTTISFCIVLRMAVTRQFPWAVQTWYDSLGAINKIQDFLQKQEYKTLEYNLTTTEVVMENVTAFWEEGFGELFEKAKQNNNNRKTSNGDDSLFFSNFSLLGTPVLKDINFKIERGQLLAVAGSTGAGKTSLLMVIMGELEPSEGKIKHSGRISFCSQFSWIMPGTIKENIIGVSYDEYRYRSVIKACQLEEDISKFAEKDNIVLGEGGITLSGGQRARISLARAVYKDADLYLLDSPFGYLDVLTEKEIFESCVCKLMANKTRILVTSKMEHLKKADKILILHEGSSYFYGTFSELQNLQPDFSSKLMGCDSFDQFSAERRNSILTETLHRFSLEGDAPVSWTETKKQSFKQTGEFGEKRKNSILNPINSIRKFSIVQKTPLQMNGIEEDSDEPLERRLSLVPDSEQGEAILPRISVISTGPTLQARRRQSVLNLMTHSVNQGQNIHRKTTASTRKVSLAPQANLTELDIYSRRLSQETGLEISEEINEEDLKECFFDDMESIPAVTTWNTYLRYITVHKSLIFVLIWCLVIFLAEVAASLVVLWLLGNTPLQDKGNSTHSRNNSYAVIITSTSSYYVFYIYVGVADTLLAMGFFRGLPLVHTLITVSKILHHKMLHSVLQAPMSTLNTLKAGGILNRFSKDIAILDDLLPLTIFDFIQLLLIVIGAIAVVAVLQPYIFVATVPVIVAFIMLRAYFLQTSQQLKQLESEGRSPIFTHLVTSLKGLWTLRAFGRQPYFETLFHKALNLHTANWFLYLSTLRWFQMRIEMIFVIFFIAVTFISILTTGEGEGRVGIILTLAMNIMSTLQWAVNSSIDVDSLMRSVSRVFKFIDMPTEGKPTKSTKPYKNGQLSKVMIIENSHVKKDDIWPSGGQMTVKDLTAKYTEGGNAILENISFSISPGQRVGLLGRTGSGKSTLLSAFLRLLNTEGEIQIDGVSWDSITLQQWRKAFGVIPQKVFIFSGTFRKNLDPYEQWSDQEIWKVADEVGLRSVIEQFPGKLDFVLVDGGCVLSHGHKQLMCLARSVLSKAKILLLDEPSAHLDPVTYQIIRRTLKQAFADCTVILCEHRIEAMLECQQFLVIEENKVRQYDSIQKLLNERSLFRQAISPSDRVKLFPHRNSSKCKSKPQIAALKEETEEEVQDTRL

`Cc1cc(CCNC(=O)[C@@H]2CC(=O)N(C)[C@@H](CC(C)C)C(=O)N(C)[C@H](Cc3nc(C(F)(F)F)no3)C(=O)N[C@H](Cc3ccccc3)COc3ccc4ncc(F)cc4c3C(=O)N2)on1` [Example 965, (3S,7S,10R,13R)-13-benzyl-20-fluoro-7-isobutyl-6,9-dimethyl-N-(2-(3-methylisoxazol-5-yl)ethyl)-1,5,8,11-tetraoxo-10-((3-(trifluoromethyl)-1,2,4-oxadiazol-5-yl)methyl)-1,2,3,4,5,6,7,8,9,10,11,12,13,14-tetradecahydro-[1]oxa[4,7,10,14]tetraazacycloheptadecino[16,17-f]quinoline-3-carboxamide] showed an EC50 of 32 nM and an Emax of 453%.
Work on `CC(C)C[C@H]1C(=O)N(C)[C@H](Cc2nc(C(F)(F)F)no2)C(=O)N[C@H](Cc2ccccc2)COc2ccc3ncc(F)cc3c2C(=O)N[C@H](C(=O)NC[C@@H](O)c2nc(C3CC3)no2)CC(=O)N1C` [Example 966, (3S,7S,10R,13R)-13-benzyl-N-((R)-2-(3-cyclopropyl-1,2,4-oxadiazol-5-yl)-2-hydroxyethyl)-20-fluoro-7-isobutyl-6,9-dimethyl-1,5,8,11-tetraoxo-10-((3-(trifluoromethyl)-1,2,4-oxadiazol-5-yl)methyl)-1,2,3,4,5,6,7,8,9,10,11,12,13,14-tetradecahydro-[1]oxa[4,7,10,14]tetraazacycloheptadecino[16,17-f]quinoline-3-carboxamide] yielded an EC50 of 82 nM and an Emax of 404%.
In the case of `COc1noc(CCNC(=O)[C@@H]2CC(=O)N(C)[C@@H](CC(C)C)C(=O)N(C)[C@H](CC(F)F)C(=O)N[C@H](Cc3ccccc3)COc3ccc4ncc(F)cc4c3C(=O)N2)c1F` [Example 967, (3S,7S,10R,13R)-13-benzyl-10-(2,2-difluoroethyl)-20-fluoro-N-(2-(4-fluoro-3-methoxyisoxazol-5-yl)ethyl)-7-isobutyl-6,9-dimethyl-1,5,8,11-tetraoxo-1,2,3,4,5,6,7,8,9,10,11,12,13,14-tetradecahydro-[1]oxa[4,7,10,14]tetraazacycloheptadecino[16,17-f]quinoline-3-carboxamide], the EC50 is reported as 92 nM and the Emax is reported as 472%.
Work on `COc1noc(CCNC(=O)[C@@H]2CC(=O)N(C)[C@@H](CC(C)C)C(=O)N(C)[C@H](CC(F)F)C(=O)N[C@H](Cc3ccccc3)COc3cc(C)nc(OC)c3C(=O)N2)c1F` [Example 968, (3R,6R,9S,13S)-3-benzyl-6-(2,2-difluoroethyl)-N-(2-(4-fluoro-3-methoxyisoxazol-5-yl)ethyl)-9-isobutyl-16-methoxy-7,10,18-trimethyl-5,8,11,15-tetraoxo-2,3,4,5,6,7,8,9,10,11,12,13,14,15-tetradecahydropyrido[3,4-p][1]oxa[4,7,10,14]tetraazacycloheptadecine-13-carboxamide] yielded an EC50 of 226 nM and an Emax of 478%.
In the case of `COc1noc(CCNC(=O)[C@@H]2CC(=O)N(C)[C@@H](CC(C)C)C(=O)N(C)C3(CC(F)(F)C3)C(=O)N[C@H](Cc3ccccc3)COc3ccc4ncc(F)cc4c3C(=O)N2)c1F` [Example 969, (3′S,7′S,13′R)-13′-benzyl-3,3,20′-trifluoro-N-(2-(4-fluoro-3-methoxyisoxazol-5-yl)ethyl)-7′-isobutyl-6′,9′-dimethyl-1′,5′,8′,11′-tetraoxo-2′,3′,4′,5′,6′,7′,8′,9′,11′,12′,13′,14′-dodecahydro-1′H-spiro[cyclobutane-1,10′-[1]oxa[4,7,10,14]tetraazacycloheptadecino[16,17-f]quinoline]-3′-carboxamide], the EC50 is reported as 142 nM and the Emax is reported as 452%.
For `COc1noc(CCNC(=O)[C@@H]2CC(=O)N(C)[C@@H](CC(C)C)C(=O)N(C)[C@H](CC(F)F)C(=O)N[C@H](Cc3ccccc3)COc3ccc4cnc(C)cc4c3C(=O)N2)c1F` [Example 970, (3S,7S,10R,13R)-13-benzyl-10-(2,2-difluoroethyl)-N-(2-(4-fluoro-3-methoxyisoxazol-5-yl)ethyl)-7-isobutyl-6,9,20-trimethyl-1,5,8,11-tetraoxo-1,2,3,4,5,6,7,8,9,10,11,12,13,14-tetradecahydro-[1]oxa[4,7,10,14]tetraazacycloheptadecino[16,17-f]isoquinoline-3-carboxamide], the EC50 was 109 nM and the Emax was 463%.
Work on `COc1noc(CCNC(=O)[C@@H]2CC(=O)N(C)[C@@H](CC(C)C)C(=O)N(C)[C@H](Cc3noc(C(C)(C)C)n3)C(=O)N[C@H](Cc3ccccc3)COc3ccc4ncc(F)cc4c3C(=O)N2)n1` [Example 971, (3S,7S,10R,13R)-13-benzyl-10-((5-(tert-butyl)-1,2,4-oxadiazol-3-yl)methyl)-20-fluoro-7-isobutyl-N-(2-(3-methoxy-1,2,4-oxadiazol-5-yl)ethyl)-6,9-dimethyl-1,5,8,11-tetraoxo-1,2,3,4,5,6,7,8,9,10,11,12,13,14-tetradecahydro-[1]oxa[4,7,10,14]tetraazacycloheptadecino[16,17-f]quinoline-3-carboxamide] yielded an EC50 of 163 nM and an Emax of 482%.
`COc1cc(CCNC(=O)[C@@H]2CC(=O)N(C)[C@@H](CC(C)C)C(=O)N(C)[C@H](Cc3noc(C(C)(C)C)n3)C(=O)N[C@H](Cc3ccccc3)COc3ccc4ncc(F)cc4c3C(=O)N2)on1` [Example 972, (3S,7S,10R,13R)-13-benzyl-10-((5-(tert-butyl)-1,2,4-oxadiazol-3-yl)methyl)-20-fluoro-7-isobutyl-N-(2-(3-methoxyisoxazol-5-yl)ethyl)-6,9-dimethyl-1,5,8,11-tetraoxo-1,2,3,4,5,6,7,8,9,10,11,12,13,14-tetradecahydro-[1]oxa[4,7,10,14]tetraazacycloheptadecino[16,17-f]quinoline-3-carboxamide] was tested, and the EC50 was 128 nM and the Emax was 436%.
Compound `COc1noc(CCNC(=O)[C@@H]2CC(=O)N(C)[C@@H](CC(C)C)C(=O)N3CCCC[C@@H]3C(=O)N[C@H](Cc3ccccc3)COc3ccc4ncc(F)cc4c3C(=O)N2)c1F` [Example 973, (9S,13S,19aR,22R)-22-benzyl-5-fluoro-N-(2-(4-fluoro-3-methoxyisoxazol-5-yl)ethyl)-13-isobutyl-12-methyl-7,11,14,20-tetraoxo-7,8,9,10,11,12,13,14,17,18,19,19a,20,21,22,23-hexadecahydro-16H-pyrido[2′,1′:6,7][1]oxa[4,7,10,14]tetraazacycloheptadecino[16,17-f]quinoline-9-carboxamide] has an EC50 of 117 nM and an Emax of 446%.
`COc1noc(CCNC(=O)[C@@H]2CC(=O)N(C)[C@@H](CC(C)C)C(=O)N(C)[C@H](CC(F)(F)F)C(=O)N[C@H](Cc3ccccc3)COc3cc(C)c4ncccc4c3C(=O)N2)n1` [Example 975, (3S,7S,10R,13R)-13-benzyl-7-isobutyl-N-(2-(3-methoxy-1,2,4-oxadiazol-5-yl)ethyl)-6,9,17-trimethyl-1,5,8,11-tetraoxo-10-(2,2,2-trifluoroethyl)-1,2,3,4,5,6,7,8,9,10,11,12,13,14-tetradecahydro-[1]oxa[4,7,10,14]tetraazacycloheptadecino[16,17-f]quinoline-3-carboxamide] gave an EC50 of 119 nM and an Emax of 497%.
`CCOCC[C@@H]1C(=O)N[C@H](Cc2ccccc2)COc2ccc3ncc(F)cc3c2C(=O)N[C@H](C(=O)NCCc2nc(C3CC3)no2)CC(=O)N(C)[C@@H](CC(C)C)C(=O)N1C` [Example 976, (3S,7S,10R,13R)-13-Benzyl-N-(2-(3-cyclopropyl-1,2,4-oxadiazol-5-yl)ethyl)-10-(2-ethoxyethyl)-20-fluoro-7-isobutyl-6,9-dimethyl-1,5,8,11-tetraoxo-1,2,3,4,5,6,7,8,9,10,11,12,13,14-tetradecahydro-[1]oxa[4,7,10,14]tetraazacycloheptadecino[16,17-f]quinoline-3-carboxamide] was tested, and the EC50 was 179 nM and the Emax was 348%.
Work on `COc1cc(CCNC(=O)[C@@H]2CC(=O)N(C)[C@@H](CC(C)C)C(=O)N(C)[C@H](CCOc3cnc(C)cn3)C(=O)N[C@H](Cc3ccccc3)COc3cc(C)nc(OC)c3C(=O)N2)on1` [Example 977, (3R,6R,9S,13S)-3-benzyl-9-isobutyl-16-methoxy-N-(2-(3-methoxyisoxazol-5-yl)ethyl)-7,10,18-trimethyl-6-(2-((5-methylpyrazin-2-yl)oxy)ethyl)-5,8,11,15-tetraoxo-2,3,4,5,6,7,8,9,10,11,12,13,14,15-tetradecahydropyrido[3,4-p][1]oxa[4,7,10,14]tetraazacycloheptadecine-13-carboxamide] yielded an EC50 of 281 nM and an Emax of 410%.
Compound `COc1cc(OCC[C@@H]2C(=O)N[C@H](Cc3ccccc3)COc3cc(C)nc(OC)c3C(=O)N[C@H](C(=O)NCCc3cc(OC)no3)CC(=O)N(C)[C@@H](CC(C)C)C(=O)N2C)ccn1` [Example 978, (3R,6R,9S,13S)-3-benzyl-9-isobutyl-16-methoxy-N-(2-(3-methoxyisoxazol-5-yl)ethyl)-6-(2-((2-methoxypyridin-4-yl)oxy)ethyl)-7,10,18-trimethyl-5,8,11,15-tetraoxo-2,3,4,5,6,7,8,9,10,11,12,13,14,15-tetradecahydropyrido[3,4-p][1]oxa[4,7,10,14]tetraazacycloheptadecine-13-carboxamide] has an EC50 of 129 nM and an Emax of 457%.
Compound `COc1cc(CCNC(=O)[C@@H]2CC(=O)N(C)[C@@H](CC(C)C)C(=O)N(C)[C@H](CC3CC3)C(=O)N[C@H](Cc3ccccc3)COc3cc(C)nc(OC)c3C(=O)N2)on1` [Example 979, (3R,6R,9S,13S)-3-benzyl-6-(cyclopropylmethyl)-9-isobutyl-16-methoxy-N-(2-(3-methoxyisoxazol-5-yl)ethyl)-7,10,18-trimethyl-5,8,11,15-tetraoxo-2,3,4,5,6,7,8,9,10,11,12,13,14,15-tetradecahydropyrido[3,4-p][1]oxa[4,7,10,14]tetraazacycloheptadecine-13-carboxamide] has an EC50 of 209 nM and an Emax of 394%.
